What follows are compounds tested on Phosphorylation of STAT6 in human A549 cells (assay: Phosphorylated STAT6 (pSTAT6) flow cytometry assay in human A549 cells). Conditions: read-out: STAT6 IL4 pSTAT6 assay in A549 cells: Average IC50.
Format: cell-based
Text: Example 3. Phosphorylated STAT6 (pSTAT6) Flow Cytometry Assay in Human A549 Cells
Phosphorylation of STAT6 in human A549 cells was quantitatively measured using flow cytometry technology.

Compound	IC50
COc1ccncc1-c1cc(C2=CCCN(C(=O)CCn3ccnn3)C2)c(F)c2[nH]c(C(=O)N3CCN(c4ccccc4)CC3)cc12 [Example I-400]	> 100000 nM
COc1ccccc1-c1cc(C2=CCCN(C(=O)CCn3ccnn3)C2)c(F)c2[nH]c(C(=O)N3CCN(c4ccccn4)CC3)cc12 [Example I-862]	< 100 nM
COc1ccccc1-c1cc(C2=CCCN(C(=O)CCn3ccnn3)C2)c(F)c2[nH]c(C(=O)N3CCN(c4ncnc5ncn(C)c45)CC3)cc12 [Example I-920]	< 100 nM
COc1ccccc1-c1cc(C2CCCN(C(=O)CCn3ccnn3)C2)c(F)c2[nH]c(C(=O)N3CCN(c4ncccc4OC4CC4)CC3)cc12 (centres unmarked) [Example I-364]	< 100 nM
CCC1CN(C(=O)c2cc3c(-c4ccccc4OC)cc(C4=CCCN(C(=O)CCn5ccnn5)C4)c(F)c3[nH]2)CC=C1c1ccccn1 (racemic) [Example I-1042]	10000 to 100000 nM
COc1cnccc1-c1cc(C2=CCCN(C(=O)CCn3cccn3)C2)c(F)c2[nH]c(C(=O)N3CCN(c4ncc(F)cc4OC)CC3)cc12 [Example I-663]	< 100 nM
CCc1ccc(-c2cc(C(=O)N3Cc4cnn(CC)c4C3)cc3cc(C4=CCCN(C(=O)C(=O)O)C4)n(CC4CC4)c23)c(C)n1 [Example I-798]	> 100000 nM
COc1cccnc1N1CCN(C(=O)c2cc3c(-c4cnccc4C(C)C)cc(C4=CCCN(C(=O)CCn5ccnn5)C4)c(F)c3[nH]2)CC1 [Example I-607]	> 100000 nM
COc1ccccc1-c1cc(C2=CCCN(C(=O)CCn3ccnn3)C2)c(F)c2[nH]c(C(=O)N3CCN(c4ccc(C#N)cc4F)CC3)cc12 [Example I-1009]	< 100 nM
CCc1ccncc1-c1cc(C2=CCC[C@H](C(=O)O)C2)c(F)c2[nH]c(C(=O)N3CCN(c4ncc(F)cc4OC)CC3)cc12 (single isomer, unassigned) [Example I-809]	> 100000 nM
COc1ncccc1-c1cc(C2=CCCN(C(C)=O)C2)c(F)c2[nH]c(C(=O)N(C)C)cc12 [Example I-879]	< 100 nM
COc1cnc(N2CCN(C(=O)c3cc4c(-c5cnccc5OC)cc(C5=CCCN(C(=O)CCn6ccnn6)C5)c(F)c4[nH]3)CC2)c(OC)c1 [Example I-437]	< 100 nM
COc1ccccc1-c1cc(C2=CCCN(C(=O)CCn3ccnn3)C2)c(F)c2sc(C(=O)N(C)C)cc12 [Example I-337, 6-(1-(3-(1H-1,2,3-triazol-1-yl)propanoyl)-1,2,5,6-tetrahydropyridin-3-yl)-7-fluoro-4-(2-methoxyphenyl)-N,N-dimethylbenzo[b]thiophene-2-carboxamide]	< 100 nM
COc1ccccc1-c1cc(C2=CCCN(C(=O)CCn3ccnn3)C2)c(F)c2[nH]c(C(=O)N3CCN(c4scnc4C)CC3)cc12 [Example I-777]	< 100 nM
COc1c(F)cccc1-c1cc(C2=CCCN(C(=O)CCn3ccnn3)C2)cc2cc(C(=O)N(C)C)oc12 [Example I-1076]	< 100 nM
COc1cc(F)ccc1-c1cc(C2=CCCN(C(=O)CCn3ccnn3)C2)cc2[nH]c(C(=O)N(C)C)cc12 [Example I-1055]	< 100 nM

Results, then the compound that gave them:

IC50	Compound
< 100 nM	COc1cc(F)cnc1N1CCN(C(=O)c2cc3c(-c4ccc(-c5ccncc5)cc4)cc(C4=CCCN(C(=O)CCn5ccnn5)C4)c(F)c3[nH]2)CC1 [Example I-1118]
> 100000 nM	COc1ccccc1-c1cc(C2=CCCN(C(=O)CCn3ccnn3)C2)c(F)c2[nH]c(C(=O)N3CCN(c4cc5cc[nH]c5nc4C#N)CC3)cc12 [Example I-401]
< 100 nM	COc1cc(F)cnc1-c1cc(C2=CCCN(C(=O)CCn3ccnn3)C2)c(F)c2[nH]c(C(=O)N3CCN(c4ncc(F)cc4OC)CC3)cc12 [Example I-614]
< 100 nM	COc1cccnc1N1CCN(C(=O)c2cc3c(C4CCN(C)C4)cc(C4=CCCN(C(=O)CCn5ccnn5)C4)c(F)c3[nH]2)CC1 (centres unmarked) [Example I-585]
< 100 nM	COc1ccncc1-c1cc(C2=CCCN(C(=O)CCn3ccnn3)C2)c(F)c2[nH]c(C(=O)N3CCN(c4cc5cc[nH]c5nc4C#N)CC3)cc12 [Example I-485]
> 100000 nM	CN(C(=O)c1cc2c(-c3cncnc3C3CC3)cc(C3=CCCN(C(=O)CCn4ccnn4)C3)c(F)c2[nH]1)C1CC1 [Example I-1043]
> 100000 nM	CCc1cnccc1-c1cc(C(=O)N2CCN(c3ncc(F)cc3OC)CC2)cc2cc(C3=CCCN(C(=O)CCn4ccnn4)C3)n(CC3CC3)c12 [Example I-542]
< 100 nM	(R)-1-(3-(7-fluoro-2-(4-(5-fluoro-3-methoxypyridin-2-yl)piperazine-1-carbonyl)-4-(1-methylpyrrolidin-3-yl)-1H-indol-6-yl)-5,6-dihydropyridin-1(2H)-yl)-3-(1H-1,2,3-triazol-1-yl)propan-1-one [Example I-812]
100 to 1000 nM	CN(C)C(=O)c1cc2cc(C3=CCCN(C(=O)C(Cn4ccnn4)c4cccc(CO)c4)C3)ccc2o1 (centres unmarked) [Example I-833]
< 100 nM	CCc1ccncc1-c1cc(C2=CCCN(C(=O)CCn3ccnn3)C2)c(F)c2[nH]c(C(=O)N3CCN(c4cccc(OC)n4)CC3)cc12 [Example I-480]
> 100000 nM	CNc1ccc(-c2cc(C3=CCCN(C(=O)CCn4ccnn4)C3)cc3[nH]c(C(=O)N(C)C)cc23)c(OC)c1 [Example I-1051]
< 100 nM	COc1cc(F)cnc1N1CCN(C(=O)c2cc3c(-c4ccc5c(c4)c(C4CC4)nn5C)cc(C4=CCCN(C(=O)CCn5ccnn5)C4)c(F)c3[nH]2)CC1 [Example I-622]
< 100 nM	COc1ccccc1-c1cc(C(=O)N2Cc3cnn(C)c3C2)cc2cc(C3=CCCN(C(=O)CCn4ccnn4)C3)n(CC3CC3)c12 [Example I-736]
< 100 nM	CCc1cc(C)ncc1-c1cc(C2=CCCN(C(=O)CCn3cccn3)C2)c(F)c2[nH]c(C(=O)N3CCN(c4nc(C)c(F)cc4OC)CC3)cc12 [Example I-738]
< 100 nM	CNc1ccc(-c2cc(C3=CCCN(C(=O)CCn4ccnn4)C3)c(F)c3[nH]c(C(=O)N4CCN(C)CC4)cc23)c(OC)c1 [Example I-990]
< 100 nM	(S)-1-(5-(7-fluoro-2-(4-(5-fluoro-3-methoxypyridin-2-yl)piperazine-1-carbonyl)-4-(1-methylpyrrolidin-3-yl)-1H-indol-6-yl)-3,6-dihydropyridin-1(2H)-yl)-3-(1H-1,2,3-triazol-1-yl)propan-1-one [Example I-811]
10000 to 100000 nM	COc1cnccc1-c1cc(C2=CCCN(C(=O)CCn3ccnn3)C2)c(F)c2[nH]c(C(=O)N3Cc4cnn(C)c4C3)cc12 [Example I-502]
< 100 nM	COc1ccccc1-c1cc(C2=CCCN(C(=O)CCn3ccnn3)C2)c(F)c2[nH]c(C(=O)N3Cc4cnn(C)c4C3)cc12 [Example I-464]
< 100 nM	COc1cnccc1-c1cc(C(=O)N2CCN(c3ncc(F)cc3OC)CC2)cc2cc(C3=CCCN(C(=O)CCn4ccnn4)C3)n(CC3CC3)c12 [Example I-729]
< 100 nM	CCOc1ccncc1-c1cc(C2=CCCN(C(=O)CCn3cccn3)C2)c(F)c2[nH]c(C(=O)N3CCN(c4cncnc4OC)CC3)cc12 [Example I-486]
100 to 1000 nM	COc1cc(F)cnc1N1CCN(C(=O)c2cc3c(-c4cnn(-c5ccccc5)c4)cc(C4=CCCN(C(=O)CCn5ccnn5)C4)c(F)c3[nH]2)CC1 [Example I-671]
< 100 nM	COc1ccccc1-c1cc(C2=CCCN(C(=O)CCn3ccnn3)C2)c(F)c2[nH]c(C(=O)N3CCN(c4ccc(F)cc4OC)CC3)cc12 [Example I-431]
